Source: PubChem BioAssay (NCI)
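Test compounds were applied to cells in 96-well plates for 48 hours at 5 doses. TGI is the concentration that stops growth completely.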

Assays:
Assay in all cases: NCI-60 cell line screen, 48 h
HT29 colon = system: HT29 colon
HCC-2998 colon = system: HCC-2998 colon
SK-MEL-28 melanoma = system: SK-MEL-28 melanoma
NCI-H460 lung = system: NCI-H460 lung
NCI/ADR-RES ovarian = system: NCI/ADR-RES ovarian
DU-145 prostate = system: DU-145 prostate
IGROV1 ovarian = system: IGROV1 ovarian
RPMI-8226 leukemia = system: RPMI-8226 leukemia
PC-3 prostate = system: PC-3 prostate
U251 CNS = system: U251 CNS
MALME-3M melanoma = system: MALME-3M melanoma
MCF7 breast = system: MCF7 breast
MOLT-4 leukemia = system: MOLT-4 leukemia
LOX IMVI melanoma = system: LOX IMVI melanoma
NCI-H23 lung = system: NCI-H23 lung
SW-620 colon = system: SW-620 colon
OVCAR-8 ovarian = system: OVCAR-8 ovarian
T-47D breast = system: T-47D breast
CAKI-1 renal = system: CAKI-1 renal
SK-MEL-5 melanoma = system: SK-MEL-5 melanoma
OVCAR-5 ovarian = system: OVCAR-5 ovarian
ACHN renal = system: ACHN renal
SF-295 CNS = system: SF-295 CNS
SF-268 CNS = system: SF-268 CNS
BT-549 breast = system: BT-549 breast
K-562 leukemia = system: K-562 leukemia
786-0 renal = system: 786-0 renal
SN12C renal = system: SN12C renal
KM12 colon = system: KM12 colon
HCT-116 colon = system: HCT-116 colon
EKVX NSCLC = system: EKVX NSCLC
COLO 205 colon = system: COLO 205 colon
HOP-62 NSCLC = system: HOP-62 NSCLC
HCT-15 colon = system: HCT-15 colon
SF-539 CNS = system: SF-539 CNS
NCI-H522 lung = system: NCI-H522 lung
MDA-MB-435 = system: MDA-MB-435
OVCAR-4 ovarian = system: OVCAR-4 ovarian
CCRF-CEM leukemia = system: CCRF-CEM leukemia
UACC-62 melanoma = system: UACC-62 melanoma
HL-60(TB) leukemia = system: HL-60(TB) leukemia
A549 NSCLC = system: A549 NSCLC
RXF 393 renal = system: RXF 393 renal
SK-MEL-2 melanoma = system: SK-MEL-2 melanoma
SK-OV-3 ovarian = system: SK-OV-3 ovarian
M14 melanoma = system: M14 melanoma
NCI-H226 lung = system: NCI-H226 lung
SR leukemia = system: SR leukemia
OVCAR-3 ovarian = system: OVCAR-3 ovarian
A498 renal = system: A498 renal
UACC-257 melanoma = system: UACC-257 melanoma
HOP-92 NSCLC = system: HOP-92 NSCLC
HS 578T breast = system: HS 578T breast
MDA-N = system: MDA-N
TK-10 renal = system: TK-10 renal
SNB-75 CNS = system: SNB-75 CNS
SNB-19 CNS = system: SNB-19 CNS
UO-31 renal = system: UO-31 renal
MDA-MB-231 breast = system: MDA-MB-231 breast

Compound: COC(=O)C1SC(N(C)c2ccccc2)=NC12c1ccccc1Nc1ccccc12 (configuration not stated)
- TGI (HT29 colon): 62.2 µM
- TGI (HCC-2998 colon): 42.4 µM
- TGI (SK-MEL-28 melanoma): 45.8 µM
- TGI (NCI-H460 lung): 27 µM
- TGI (NCI/ADR-RES ovarian): 65.4 µM
- TGI (DU-145 prostate): > 100 µM
- TGI (IGROV1 ovarian): 53.1 µM
- TGI (RPMI-8226 leukemia): 12 µM
- TGI (PC-3 prostate): 53.9 µM
- TGI (U251 CNS): 98.8 µM
- TGI (MALME-3M melanoma): 30.9 µM
- TGI (MCF7 breast): 81.9 µM
- TGI (MOLT-4 leukemia): 28.4 µM
- TGI (LOX IMVI melanoma): 50.8 µM
- TGI (NCI-H23 lung): 35.9 µM
- TGI (SW-620 colon): > 100 µM
- TGI (OVCAR-8 ovarian): 67.6 µM
- TGI (T-47D breast): 50 µM
- TGI (CAKI-1 renal): 74.6 µM
- TGI (SK-MEL-5 melanoma): 26 µM
- TGI (OVCAR-5 ovarian): 55.2 µM
- TGI (ACHN renal): > 100 µM
- TGI (SF-295 CNS): 50.7 µM
- TGI (SF-268 CNS): 72.5 µM
- TGI (BT-549 breast): 45.1 µM
- TGI (K-562 leukemia): 47.7 µM
- TGI (786-0 renal): 94 µM
- TGI (SN12C renal): 66.7 µM
- TGI (KM12 colon): 66.7 µM
- TGI (HCT-116 colon): 53.5 µM
- TGI (EKVX NSCLC): 66.3 µM
- TGI (COLO 205 colon): 30.7 µM
- TGI (HOP-62 NSCLC): > 100 µM
- TGI (HCT-15 colon): 49.3 µM
- TGI (SF-539 CNS): 38.6 µM
- TGI (NCI-H522 lung): 38.5 µM
- TGI (MDA-MB-435): 40 µM
- TGI (OVCAR-4 ovarian): 73.9 µM
- TGI (CCRF-CEM leukemia): 57.7 µM
- TGI (UACC-62 melanoma): 32 µM
- TGI (HL-60(TB) leukemia): 37.5 µM
- TGI (A549 NSCLC): 87.8 µM
- TGI (RXF 393 renal): > 100 µM
- TGI (SK-MEL-2 melanoma): 31.7 µM
- TGI (SK-OV-3 ovarian): > 100 µM
- TGI (M14 melanoma): 38.7 µM
- TGI (NCI-H226 lung): 51.5 µM
- TGI (SR leukemia): 43.3 µM
- TGI (OVCAR-3 ovarian): 34.1 µM
- TGI (A498 renal): 55.6 µM
- TGI (UACC-257 melanoma): 64 µM
- TGI (HOP-92 NSCLC): 59.4 µM
- TGI (HS 578T breast): 53 µM
- TGI (MDA-N): 57 µM
- TGI (TK-10 renal): 72.5 µM
- TGI (SNB-75 CNS): 84.7 µM
- TGI (SNB-19 CNS): 66.1 µM
- TGI (UO-31 renal): 52.3 µM

Compound: CC(=O)c1ccc(NC(=O)/C(CC(=O)/C=C/c2ccccc2)=N/NC(N)=S)cc1
- TGI (HT29 colon): > 100 µM
- TGI (HCC-2998 colon): > 100 µM
- TGI (SK-MEL-28 melanoma): > 100 µM
- TGI (NCI-H460 lung): > 100 µM
- TGI (NCI/ADR-RES ovarian): > 100 µM
- TGI (IGROV1 ovarian): > 100 µM
- TGI (RPMI-8226 leukemia): > 100 µM
- TGI (PC-3 prostate): > 100 µM
- TGI (U251 CNS): > 100 µM
- TGI (MALME-3M melanoma): > 100 µM
- TGI (MCF7 breast): > 100 µM
- TGI (MOLT-4 leukemia): > 100 µM
- TGI (LOX IMVI melanoma): > 100 µM
- TGI (NCI-H23 lung): > 100 µM
- TGI (SW-620 colon): > 100 µM
- TGI (OVCAR-8 ovarian): > 100 µM
- TGI (T-47D breast): > 100 µM
- TGI (CAKI-1 renal): > 100 µM
- TGI (SK-MEL-5 melanoma): > 100 µM
- TGI (OVCAR-5 ovarian): > 100 µM
- TGI (ACHN renal): > 100 µM
- TGI (SF-295 CNS): > 100 µM
- TGI (SF-268 CNS): > 100 µM
- TGI (BT-549 breast): > 100 µM
- TGI (K-562 leukemia): > 100 µM
- TGI (MDA-MB-231 breast): > 100 µM
- TGI (786-0 renal): > 100 µM
- TGI (SN12C renal): > 100 µM
- TGI (KM12 colon): > 100 µM
- TGI (HCT-116 colon): > 100 µM
- TGI (EKVX NSCLC): > 100 µM
- TGI (HOP-62 NSCLC): > 100 µM
- TGI (HCT-15 colon): > 100 µM
- TGI (SF-539 CNS): > 100 µM
- TGI (NCI-H522 lung): > 100 µM
- TGI (MDA-MB-435): > 100 µM
- TGI (OVCAR-4 ovarian): > 100 µM
- TGI (UACC-62 melanoma): > 100 µM
- TGI (HL-60(TB) leukemia): > 100 µM
- TGI (A549 NSCLC): > 100 µM
- TGI (RXF 393 renal): > 100 µM
- TGI (SK-MEL-2 melanoma): > 100 µM
- TGI (SK-OV-3 ovarian): > 100 µM
- TGI (M14 melanoma): > 100 µM
- TGI (NCI-H226 lung): > 100 µM
- TGI (SR leukemia): > 100 µM
- TGI (OVCAR-3 ovarian): > 100 µM
- TGI (A498 renal): > 100 µM
- TGI (UACC-257 melanoma): > 100 µM
- TGI (HOP-92 NSCLC): > 100 µM
- TGI (HS 578T breast): > 100 µM
- TGI (MDA-N): > 100 µM
- TGI (TK-10 renal): > 100 µM
- TGI (SNB-75 CNS): > 100 µM
- TGI (UO-31 renal): > 100 µM

Compound: COc1cc2c3c(c1O)N=NC=3CCN=2
- TGI (HT29 colon): 28.8 µM
- TGI (HCC-2998 colon): > 100 µM
- TGI (SK-MEL-28 melanoma): 32.1 µM
- TGI (NCI-H460 lung): 80.1 µM
- TGI (NCI/ADR-RES ovarian): > 100 µM
- TGI (IGROV1 ovarian): 34 µM
- TGI (RPMI-8226 leukemia): 31.1 µM
- TGI (PC-3 prostate): 84.8 µM
- TGI (U251 CNS): 30.6 µM
- TGI (MALME-3M melanoma): 30.2 µM
- TGI (MCF7 breast): 20.2 µM
- TGI (MOLT-4 leukemia): 50.4 µM
- TGI (LOX IMVI melanoma): 18 µM
- TGI (NCI-H23 lung): 38.2 µM
- TGI (SW-620 colon): 31.7 µM
- TGI (OVCAR-8 ovarian): 30.9 µM
- TGI (T-47D breast): 23.3 µM
- TGI (SK-MEL-5 melanoma): 32.5 µM
- TGI (OVCAR-5 ovarian): 34.4 µM
- TGI (ACHN renal): 33.8 µM
- TGI (SF-295 CNS): 50.9 µM
- TGI (BT-549 breast): 31.7 µM
- TGI (K-562 leukemia): 18.3 µM
- TGI (MDA-MB-231 breast): 29.8 µM
- TGI (786-0 renal): 32.7 µM
- TGI (SN12C renal): 29.3 µM
- TGI (KM12 colon): 88.4 µM
- TGI (HCT-116 colon): 28.1 µM
- TGI (EKVX NSCLC): 30.7 µM
- TGI (COLO 205 colon): 35.2 µM
- TGI (HOP-62 NSCLC): 97.3 µM
- TGI (HCT-15 colon): > 100 µM
- TGI (SF-539 CNS): 35.5 µM
- TGI (NCI-H522 lung): 19.4 µM
- TGI (MDA-MB-435): 24.5 µM
- TGI (UACC-62 melanoma): 30.7 µM
- TGI (HL-60(TB) leukemia): 14.8 µM
- TGI (A549 NSCLC): 66.4 µM
- TGI (SK-MEL-2 melanoma): 30.9 µM
- TGI (M14 melanoma): 28.8 µM
- TGI (SR leukemia): 42.3 µM
- TGI (OVCAR-3 ovarian): 31 µM
- TGI (A498 renal): 75.4 µM
- TGI (UACC-257 melanoma): 29.1 µM
- TGI (HS 578T breast): > 100 µM
- TGI (MDA-N): 25.1 µM
- TGI (TK-10 renal): 52.3 µM
- TGI (SNB-19 CNS): > 100 µM
- TGI (UO-31 renal): 62.5 µM
